We go through 3 compounds from patent publication US20250228890A1, “ANTI-CANCER FORMULATION COMPRISING SODIUM PENTABORATE, CURCUMIN AND PIPERINE FOR USE IN THE TREATMENT OF HEPATOCELLULAR CARCINOMA” (Yeditepe Universitesi, priority 2022, published 2025).

One experiment has as its system HepG2 cells. The experiment in a line: MTS cell viability assay, HepG2 cells. It counts as cell-based, Human. To be noted: 48 hours. Here is the method:
(§1) Human hepatocellular cancer cell lines, HepG2 (HB-8065, ATCC), Hep3B (HB-8064, ATCC) and HUVEC (CRL-1730) cells are cultured in a growth medium (2 mM L-glutamine, 100 U/ml penicillin, 100 µg/ml streptomycin) of Dulbecco's modified Eagle's medium (DMEM) containing 10% heat inactivated FBS in a humidified atmosphere at 37° C. with 5% CO2. Cells are passaged at 3-day intervals.
(§2) (NaB: B5H10NaO13), Curcumin (Sigma, C1386), and Piperine (Sigma, P49007). At the end of 24, 48 and 72 hours, cell viability were measured. Cell viability assay was performed by 3-(4,5-di-methyl-thiazol-2-yl)-5-(3-carboxy-methoxy-phenyl)-2-(4-sulfo-phenyl)-2H-tetrazolium (MTS) method (CellTiter96 AqueousOne Solution; Promega, Southampton, UK) following the manufacturer's protocol. After 2 hours of incubation time, the cell viability assay is conducted by measuring at 490 nm using an ELISA microplate reader (Bio-tek ELx800, USA). IC50 value for 48 hours was calculated.
(§3) The combination index (CI) is used to determine the degree of drug interaction. The concentration of inhibition in the combination is the sum of the ratio of the dose of each drug to the dose of each drug used alone. […] The formalization is as follows:
(§4) [formula] • (Dx)1, (Dx)2: Individual IC50 values of the substances • (D)1, (D)2: Concentrations of substances in the combination
(In general: Tetrazolium assays rely on reduction of a dye to a coloured formazan, in cell work by metabolically active cells.)

Experiment [1] concerns Hep3B cells. The experiment in a line: MTS cell viability assay, Hep3B cells. The format is cell-based, Human. To be noted: 48 hours. Here is the method:
as §1, §2, §3, §4

Experiment [2] has as its system Hep3B cells. To be noted: literature study [20]; cited from earlier work.

As a reminder, the IC50 is the concentration that inhibits the measured activity by half. In the case of `COc1cc(/C=C/C(=O)CC(=O)/C=C/c2ccc(O)c(OC)c2)ccc1O` [curcumin], the figures for the IC50 with HepG2 cells (Homo sapiens) and in the experiment on Hep3B cells [1] (Homo sapiens) were 44.8 µM and 41.4 µM, respectively.
Turning to `O=C(/C=C/C=C/c1ccc2c(c1)OCO2)N1CCCCC1` [piperine], the IC50 with HepG2 cells (Homo sapiens) and in the experiment with Hep3B cells [1] (Homo sapiens) was above 150 µM each time.
On to sodium pentaborate pentahydrate, for which the IC50 in the experiment on HepG2 cells is 7660 µM; in the experiment on Hep3B cells [1], 6560 µM. The “proliferation of Hep3B cells” value in the experiment with Hep3B cells [2] is on record as “decreased the proliferation of Hep3B cells”.
